ChEMBL document CHEMBL1201862, “PubChem BioAssay data set” (2004)
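Where inhibition never reached the appropriate level, the endpoint shown equals the highest concentration tested. Otherwise, values were interpolated linearly from a five-concentration, 48-hour dose response in 96-well plates. GI50 is the concentration that inhibits growth by half.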 Active and inactive are the calls of the source. Cut-off read from the data, not from the text of the source: active = GI50 up to about 1.1 µM and inactive = higher.

Tests used:
Experiment in all cases: NCI-60 cell line screen, 48 h
[1] = tested on: OVCAR-8
[2] = tested on: OVCAR-5
[3] = tested on: RXF 393
[4] = tested on: CCRF-CEM
[5] = tested on: LOX IMVI
[6] = tested on: HT-29
[7] = tested on: Hs-578T
[8] = tested on: SF-539
[9] = tested on: M14
[10] = tested on: OVCAR-4
[11] = tested on: HCT-116
[12] = tested on: COLO 205
[13] = tested on: NCI-H460
[14] = tested on: KM12
[15] = tested on: UACC-257
[16] = tested on: A549
[17] = tested on: T47D

Compound	GI50 [1]	GI50 [2]	GI50 [3]	GI50 [4]	GI50 [5]	GI50 [6]	GI50 [7]	GI50 [8]	GI50 [9]	GI50 [10]	GI50 [11]	GI50 [12]	GI50 [13]	GI50 [14]	GI50 [15]	GI50 [16]	GI50 [17]
C[C@]12CC[C@H]3[C@@H](CCC4=C(Br)C(=O)C=C[C@@]43O)[C@@H]1CCC2=O	25.8 µM (inactive)	61 µM (inactive)	21.1 µM (inactive)	0.957 µM (active)	32.3 µM (inactive)	36 µM (inactive)	62.8 µM (inactive)	53.7 µM (inactive)	39.3 µM (inactive)	33.3 µM (inactive)	26.4 µM (inactive)	61 µM (inactive)	23.5 µM (inactive)	34.2 µM (inactive)	16.9 µM (inactive)	59.7 µM (inactive)	–
CC(=O)O[C@H]1C(=O)[C@]2(C)[C@@H](OC(=O)OCCC(O)CO)C[C@H]3OC[C@@]3(OC(C)=O)[C@H]2[C@H](OC(=O)c2ccccc2)[C@]2(O)C[C@H](OC(=O)[C@H](O)[C@@H](NC(=O)c3ccccc3)c3ccccc3)C(C)=C1C2(C)C (some centres undefined)	0.0463 µM (active)	0.0303 µM (active)	0.213 µM (active)	< 0.01 µM (active)	< 0.01 µM (active)	< 0.01 µM (active)	< 0.01 µM (active)	< 0.01 µM (active)	0.0461 µM (active)	13.9 µM (inactive)	< 0.01 µM (active)	< 0.01 µM (active)	< 0.0126 µM (active)	< 0.01 µM (active)	0.037 µM (active)	0.035 µM (active)	–
O/N=C1\Nc2ccccc2OCc2cc(Br)c(Br)cc2COc2ccccc2N\C1=N/O	10.4 µM (inactive)	17.9 µM (inactive)	16.6 µM (inactive)	4.98 µM (inactive)	10.1 µM (inactive)	7.85 µM (inactive)	31.7 µM (inactive)	–	21.2 µM (inactive)	10.7 µM (inactive)	6.12 µM (inactive)	7.08 µM (inactive)	13.2 µM (inactive)	8.51 µM (inactive)	21.8 µM (inactive)	17.6 µM (inactive)	10.9 µM (inactive)
O=c1cnn(C2OC(CO)C(O)C(F)C2O)c(=O)[nH]1 (centres undefined)	> 100 µM (inactive)	> 100 µM (inactive)	–	> 100 µM (inactive)	> 100 µM (inactive)	> 100 µM (inactive)	> 100 µM (inactive)	> 100 µM (inactive)	> 100 µM (inactive)	> 100 µM (inactive)	> 100 µM (inactive)	> 100 µM (inactive)	> 100 µM (inactive)	> 100 µM (inactive)	> 100 µM (inactive)	> 100 µM (inactive)	> 100 µM (inactive)
CN(C)CCCNC(=O)c1cc(NC(=O)c2cc(NS(=O)(=O)c3ccc4c(c3)C(=O)c3ccccc3C4=O)cn2C)cn1C	> 100 µM (inactive)	> 100 µM (inactive)	> 100 µM (inactive)	31.7 µM (inactive)	55.3 µM (inactive)	65.3 µM (inactive)	–	> 100 µM (inactive)	> 100 µM (inactive)	> 100 µM (inactive)	> 100 µM (inactive)	83.9 µM (inactive)	45 µM (inactive)	80.7 µM (inactive)	45.8 µM (inactive)	> 100 µM (inactive)	> 100 µM (inactive)
CC(=O)/C(=C\c1ccc(Cl)c(Cl)c1)C(=O)C(C)CN(C)C (centres undefined)	1.91 µM (inactive)	10.8 µM (inactive)	–	< 0.01 µM (active)	2.21 µM (inactive)	5.12 µM (inactive)	–	3.52 µM (inactive)	9.75 µM (inactive)	–	2.13 µM (inactive)	11.4 µM (inactive)	12.5 µM (inactive)	2.18 µM (inactive)	10.4 µM (inactive)	14.5 µM (inactive)	2.65 µM (inactive)
